Patent publication US11684589B2, “Pharmaceutical compositions for use in the therapy of blepharitis” (NOVALIQ GMBH, priority 2016, dated 2023)

Legend:
Type in all cases: in vivo, patients
[1] = test system: posterior blepharitis; test: Assessment of posterior blepharitis severity in observational patient study; conditions: for Posterior blepharitis shift table, changes from baseline for both eyes: 7 weeks
Method: (§1) A prospective, uncontrolled, open-label, multi-center observational study was conducted with a total of 72 (53 female, 19 male) patients included, with 1 to 20 patients per site. Two patients were lost for follow-up during the study. Patients to be included had to fulfill following criteria: • Males or females≥18 years of age; • Patients with symptoms as determined by • Tear Film Break-Up Time (TFBUT)≤10 s • Ocular Surface Disease Index≥16 and ≤55 • Schirmer I Test≥2 mm (recorded within 5 min) • Sum of peripheral corneal and conjunctival staining grade≤10 (Oxford) • Altered secretion and expressibility of the meibomian glands. Among those, patients fulfilling the following criteria were not included in the study: • Known hypersensitivity to any of the components of NovaTears®; • Contact lens wear, pregnancy, or breast feeding; • Presence of dry eye disease (DED) caused by any other known underlying systemic disease; • Planned ophthalmologic surgical procedure during the course of the study; • Use of lipid-containing or tear-film stabilizing eye drops/sprays except cyclosporin formulations. Patients selected as described above were administered 1-perfluorohexyloctane (F6H8) eye drops, manufactured under the tradename “NovaTears®” (Novaliq GmbH, Heidelberg, Germany) for a period of 7 weeks. Said formulation consists essentially of 1-perfluorohexyloctane (F6H8), it is water-free and contains no additional preservatives or ingredients. A dose of 3 to 4 droplets (corresponding to 40 μl, 10 μl per drop) per eye and day were administered topically to the eye, with 1 droplet being administered as a single dose. NovaTears® single droplets were administered directly to the surface of the eye into a pocket that was formed by gently pulling down the lower eyelid. Assessment of the eyes treated was performed once before the start of NovaTears® administration (baseline) and once after 7 weeks of treatment (follow-up). Anterior blepharitis involves inflammation of the lid margin anterior to the gray line and is usually concentrated around the eyelashes and follicles. Posterior blepharitis involves inflammation of the posterior lid margin. The severity of anterior and posterior blepharitis was rated separately for each eye by selecting one of the following ratings: “none”, “+”, “++”, “+++” (with “+++” indicating most severe blepharitis anterior or posterior).

[2] = test system: abnormal lid margin features; test: Lid margin assessment (abnormal lid margin features) in observational patient study
Method: A prospective, uncontrolled, open-label, multi-center observational study was conducted with a total of 72 (53 female, 19 male) patients included, with 1 to 20 patients per site. Two patients were lost for follow-up during the study. Patients to be included had to fulfill following criteria: • Males or females≥18 years of age; • Patients with symptoms as determined by • Tear Film Break-Up Time (TFBUT)≤10 s • Ocular Surface Disease Index≥16 and ≤55 • Schirmer I Test≥2 mm (recorded within 5 min) • Sum of peripheral corneal and conjunctival staining grade≤10 (Oxford) • Altered secretion and expressibility of the meibomian glands.
Among those, patients fulfilling the following criteria were not included in the study: • Known hypersensitivity to any of the components of NovaTears®; • Contact lens wear, pregnancy, or breast feeding; • Presence of dry eye disease (DED) caused by any other known underlying systemic disease; • Planned ophthalmologic surgical procedure during the course of the study; • Use of lipid-containing or tear-film stabilizing eye drops/sprays except cyclosporin formulations.
Patients selected as described above were administered 1-perfluorohexyloctane (F6H8) eye drops, manufactured under the tradename “NovaTears®” (Novaliq GmbH, Heidelberg, Germany) for a period of 7 weeks. Said formulation consists essentially of 1-perfluorohexyloctane (F6H8), it is water-free and contains no additional preservatives or ingredients. A dose of 3 to 4 droplets (corresponding to 40 μl, 10 μl per drop) per eye and day were administered topically to the eye, with 1 droplet being administered as a single dose. NovaTears® single droplets were administered directly to the surface of the eye into a pocket that was formed by gently pulling down the lower eyelid. Assessment of the eyes treated was performed once before the start of NovaTears® administration (baseline) and once after 7 weeks of treatment (follow-up).
Lid Margin Assessment As a further parameter abnormal lid margin features, such as teleangiectasia, plugging and lid swelling were assessed in the study. Assessment was performed for each eye separately.

[3] = test system: anterior blepharitis; test: Assessment of anterior blepharitis severity in observational patient study; conditions: for Anterior blepharitis shift table, changes from baseline for both eyes: 7 weeks
Method: as §1

[4] = 7 weeks of treatment, 3 to 4 droplets per eye and day, including patients with scores ++ and +

## CCCCCCCCC(F)(F)C(F)(F)C(F)(F)C(F)(F)C(F)(F)C(F)(F)F [1-perfluorohexyloctane]
[1]; [4]
  Severity of posterior blepharitis after treatment: decreased for all patients
[1]; baseline 0 (none), follow-up 0 (none)
  Posterior blepharitis shift table, changes from baseline for both eyes: 26 eyes
[1]; baseline 0 (none), follow-up +++
  Posterior blepharitis shift table, changes from baseline for both eyes: 0 eyes
[1]; baseline 0 (none), follow-up ++
  Posterior blepharitis shift table, changes from baseline for both eyes: 0 eyes
[1]; baseline 0 (none), follow-up +
  Posterior blepharitis shift table, changes from baseline for both eyes: 5 eyes
[1]; baseline +++, follow-up 0 (none)
  Posterior blepharitis shift table, changes from baseline for both eyes: 4 eyes
[1]; baseline +++, follow-up +++
  Posterior blepharitis shift table, changes from baseline for both eyes: 0 eyes
[1]; baseline +++, follow-up ++
  Posterior blepharitis shift table, changes from baseline for both eyes: 0 eyes
[1]; baseline +++, follow-up +
  Posterior blepharitis shift table, changes from baseline for both eyes: 2 eyes
[1]; baseline ++, follow-up 0 (none)
  Posterior blepharitis shift table, changes from baseline for both eyes: 10 eyes
[1]; baseline ++, follow-up +++
  Posterior blepharitis shift table, changes from baseline for both eyes: 0 eyes
[1]; baseline ++, follow-up ++
  Posterior blepharitis shift table, changes from baseline for both eyes: 8 eyes
[1]; baseline ++, follow-up +
  Posterior blepharitis shift table, changes from baseline for both eyes: 14 eyes
[1]; baseline +, follow-up 0 (none)
  Posterior blepharitis shift table, changes from baseline for both eyes: 20 eyes
[1]; baseline +, follow-up +++
  Posterior blepharitis shift table, changes from baseline for both eyes: 0 eyes
[1]; baseline +, follow-up ++
  Posterior blepharitis shift table, changes from baseline for both eyes: 3 eyes
[1]; baseline +, follow-up +
  Posterior blepharitis shift table, changes from baseline for both eyes: 30 eyes
[1]; follow-up after 7 weeks of treatment, 122 eyes from 61 patients, baseline 6
  Assessment of posterior blepharitis, grade +++: 0 eyes
[1]; follow-up after 7 weeks of treatment, 122 eyes from 61 patients, baseline 31
  Assessment of posterior blepharitis, grade none: 60 eyes
[1]; follow-up after 7 weeks of treatment, 122 eyes from 61 patients, baseline 32
  Assessment of posterior blepharitis, grade ++: 11 eyes
[1]; follow-up after 7 weeks of treatment, 122 eyes from 61 patients, baseline 53
  Assessment of posterior blepharitis, grade +: 51 eyes
[1]; patients with the most severe posterior blepharitis rated +++
  Reduction in the severity of posterior blepharitis after treatment: most significant reduction
[2]; 7 weeks of treatment
  Abnormal lid margin features (teleangiectasia, plugging, lid swelling) after treatment: significantly reduced
[2]; follow-up after 7 weeks of treatment, assessed for each eye separately, baseline 30
  Assessment of lid margin, Lid Swelling: 20
[2]; follow-up after 7 weeks of treatment, assessed for each eye separately, baseline 74
  Assessment of lid margin, Teleangiectasia: 49
[2]; follow-up after 7 weeks of treatment, assessed for each eye separately, baseline 90
  Assessment of lid margin, Plugging: 59
[3]; [4]
  Severity of anterior blepharitis after treatment: decreased for all patients
[3]; baseline +++, follow-up +++
  Anterior blepharitis shift table, changes from baseline for both eyes: 0 eyes
[3]; baseline +++, follow-up ++
  Anterior blepharitis shift table, changes from baseline for both eyes: 0 eyes
[3]; baseline +++, follow-up +
  Anterior blepharitis shift table, changes from baseline for both eyes: 0 eyes
[3]; baseline +++, follow-up none
  Anterior blepharitis shift table, changes from baseline for both eyes: 0 eyes
[3]; baseline ++, follow-up +++
  Anterior blepharitis shift table, changes from baseline for both eyes: 0 eyes
[3]; baseline ++, follow-up ++
  Anterior blepharitis shift table, changes from baseline for both eyes: 4 eyes
[3]; baseline ++, follow-up +
  Anterior blepharitis shift table, changes from baseline for both eyes: 7 eyes
[3]; baseline ++, follow-up none
  Anterior blepharitis shift table, changes from baseline for both eyes: 4 eyes
[3]; baseline +, follow-up +++
  Anterior blepharitis shift table, changes from baseline for both eyes: 0 eyes
[3]; baseline +, follow-up ++
  Anterior blepharitis shift table, changes from baseline for both eyes: 1 eyes
[3]; baseline +, follow-up +
  Anterior blepharitis shift table, changes from baseline for both eyes: 20 eyes
[3]; baseline +, follow-up none
  Anterior blepharitis shift table, changes from baseline for both eyes: 38 eyes
[3]; baseline none, follow-up +++
  Anterior blepharitis shift table, changes from baseline for both eyes: 0 eyes
[3]; baseline none, follow-up ++
  Anterior blepharitis shift table, changes from baseline for both eyes: 2 eyes
[3]; baseline none, follow-up +
  Anterior blepharitis shift table, changes from baseline for both eyes: 15 eyes
[3]; baseline none, follow-up none
  Anterior blepharitis shift table, changes from baseline for both eyes: 31 eyes
[3]; follow-up after 7 weeks of treatment, 122 eyes from 61 patients, baseline 0
  Assessment of anterior blepharitis, grade +++: 0 eyes
[3]; follow-up after 7 weeks of treatment, 122 eyes from 61 patients, baseline 15
  Assessment of anterior blepharitis, grade ++: 7 eyes
[3]; follow-up after 7 weeks of treatment, 122 eyes from 61 patients, baseline 48
  Assessment of anterior blepharitis, grade none: 73 eyes
[3]; follow-up after 7 weeks of treatment, 122 eyes from 61 patients, baseline 59
  Assessment of anterior blepharitis, grade +: 42 eyes
